Experimental data from the NIST ThermoML archive (doi:10.1016/j.fluid.2015.04.017).

Experiment: xn = mol fraction of the nth substance listed
Conditions: 101 kPa, Liquid; for viscosity: Concentric cylinders viscometry; for mass density: Vibrating tube method

CCOC(=O)C(C)O (stereo not drawn) [DL-ethyl lactate] + CCC(C)=O
Conditions | mass density [kg/m3] | viscosity [mPa·s]
288.15 K, x1 = 0.0999 | 840.096 | 0.5127
288.15 K, x1 = 0.1999 | 868.347 | 0.6157
288.15 K, x1 = 0.3001 | 894.852 | 0.7578
288.15 K, x1 = 0.4001 | 919.605 | 0.9204
288.15 K, x1 = 0.5 | 942.723 | 1.128
288.15 K, x1 = 0.5998 | 964.577 | 1.384
288.15 K, x1 = 0.6999 | 985.434 | 1.707
288.15 K, x1 = 0.8 | 1005.13 | 2.113
288.15 K, x1 = 0.9001 | 1023.3 | 2.63
288.15 K, x1 = 1 | 1039.28 | 3.207
293.15 K, x1 = 0.0999 | 834.849 | 0.4886
293.15 K, x1 = 0.1999 | 863.068 | 0.5824
293.15 K, x1 = 0.3001 | 889.537 | 0.7086
293.15 K, x1 = 0.4001 | 914.27 | 0.8532
293.15 K, x1 = 0.5 | 937.369 | 1.035
293.15 K, x1 = 0.5998 | 959.204 | 1.254
293.15 K, x1 = 0.6999 | 980.043 | 1.527
293.15 K, x1 = 0.8 | 999.721 | 1.862
293.15 K, x1 = 0.9001 | 1017.88 | 2.287
293.15 K, x1 = 1 | 1033.84 | 2.752
298.15 K, x1 = 0.0999 | 829.575 | 0.4651
298.15 K, x1 = 0.1999 | 857.764 | 0.5514
298.15 K, x1 = 0.3001 | 884.198 | 0.6643
298.15 K, x1 = 0.4001 | 908.905 | 0.7937
298.15 K, x1 = 0.5 | 931.98 | 0.9526
298.15 K, x1 = 0.5998 | 953.795 | 1.141
298.15 K, x1 = 0.6999 | 974.621 | 1.375
298.15 K, x1 = 0.8 | 994.289 | 1.658
298.15 K, x1 = 0.9001 | 1012.45 | 2.007
298.15 K, x1 = 1 | 1028.39 | 2.39
303.15 K, x1 = 0.0999 | 824.277 | 0.4429
303.15 K, x1 = 0.1999 | 852.434 | 0.5214
303.15 K, x1 = 0.3001 | 878.836 | 0.6229
303.15 K, x1 = 0.4001 | 903.522 | 0.7397
303.15 K, x1 = 0.5 | 926.577 | 0.8816
303.15 K, x1 = 0.5998 | 948.373 | 1.046
303.15 K, x1 = 0.6999 | 969.181 | 1.248
303.15 K, x1 = 0.8 | 988.835 | 1.489
303.15 K, x1 = 0.9001 | 1006.99 | 1.783
303.15 K, x1 = 1 | 1022.92 | 2.097
308.15 K, x1 = 0.0999 | 818.947 | 0.4211
308.15 K, x1 = 0.1999 | 847.072 | 0.4939
308.15 K, x1 = 0.3001 | 873.449 | 0.5848
308.15 K, x1 = 0.4001 | 898.112 | 0.6909
308.15 K, x1 = 0.5 | 921.146 | 0.8175
308.15 K, x1 = 0.5998 | 942.923 | 0.9624
308.15 K, x1 = 0.6999 | 963.714 | 1.138
308.15 K, x1 = 0.8 | 983.356 | 1.345
308.15 K, x1 = 0.9001 | 1001.5 | 1.595
308.15 K, x1 = 1 | 1017.42 | 1.858
313.15 K, x1 = 0.0999 | 813.582 | 0.4001
313.15 K, x1 = 0.1999 | 841.677 | 0.4671
313.15 K, x1 = 0.3001 | 868.027 | 0.5492
313.15 K, x1 = 0.4001 | 892.67 | 0.6463
313.15 K, x1 = 0.5 | 915.688 | 0.7602
313.15 K, x1 = 0.5998 | 937.45 | 0.8883
313.15 K, x1 = 0.6999 | 958.226 | 1.042
313.15 K, x1 = 0.8 | 977.854 | 1.222
313.15 K, x1 = 0.9001 | 995.984 | 1.436
313.15 K, x1 = 1 | 1011.9 | 1.658
318.15 K, x1 = 0.0999 | 808.184 | 0.3798
318.15 K, x1 = 0.1999 | 836.25 | 0.4415
318.15 K, x1 = 0.3001 | 862.576 | 0.5165
318.15 K, x1 = 0.4001 | 887.197 | 0.6052
318.15 K, x1 = 0.5 | 910.198 | 0.709
318.15 K, x1 = 0.5998 | 931.944 | 0.8229
318.15 K, x1 = 0.6999 | 952.707 | 0.9589
318.15 K, x1 = 0.8 | 972.323 | 1.116
318.15 K, x1 = 0.9001 | 990.445 | 1.3
318.15 K, x1 = 1 | 1006.36 | 1.491
323.15 K, x1 = 0.0999 | 802.753 | 0.3598
323.15 K, x1 = 0.1999 | 830.788 | 0.4212
323.15 K, x1 = 0.3001 | 857.09 | 0.4897
323.15 K, x1 = 0.4001 | 881.694 | 0.5699
323.15 K, x1 = 0.5 | 904.683 | 0.6649
323.15 K, x1 = 0.5998 | 926.419 | 0.7673
323.15 K, x1 = 0.6999 | 947.168 | 0.8872
323.15 K, x1 = 0.8 | 966.77 | 1.028
323.15 K, x1 = 0.9001 | 984.879 | 1.193
323.15 K, x1 = 1 | 1000.79 | 1.349

CCOC(=O)C(C)O (stereo not drawn) [DL-ethyl lactate] + CN1CCCC1=O
Conditions | mass density [kg/m3] | viscosity [mPa·s]
288.15 K, x1 = 0.0999 | 1040.68 | 2.34
288.15 K, x1 = 0.2 | 1041.7 | 2.601
288.15 K, x1 = 0.3001 | 1042.78 | 2.89
288.15 K, x1 = 0.4 | 1043.43 | 3.122
288.15 K, x1 = 0.4997 | 1043.89 | 3.352
288.15 K, x1 = 0.6 | 1043.93 | 3.508
288.15 K, x1 = 0.7002 | 1043.56 | 3.581
288.15 K, x1 = 0.7999 | 1042.82 | 3.567
288.15 K, x1 = 0.8997 | 1041.57 | 3.456
288.15 K, x1 = 1 | 1039.28 | 3.207
293.15 K, x1 = 0.0999 | 1036.17 | 2.125
293.15 K, x1 = 0.2 | 1037.14 | 2.347
293.15 K, x1 = 0.3001 | 1038.17 | 2.585
293.15 K, x1 = 0.4 | 1038.75 | 2.772
293.15 K, x1 = 0.4997 | 1039.12 | 2.952
293.15 K, x1 = 0.6 | 1039.06 | 3.066
293.15 K, x1 = 0.7002 | 1038.56 | 3.11
293.15 K, x1 = 0.7999 | 1037.68 | 3.08
293.15 K, x1 = 0.8997 | 1036.28 | 2.975
293.15 K, x1 = 1 | 1033.84 | 2.75
298.15 K, x1 = 0.0999 | 1031.66 | 1.941
298.15 K, x1 = 0.2 | 1032.59 | 2.132
298.15 K, x1 = 0.3001 | 1033.56 | 2.331
298.15 K, x1 = 0.4 | 1034.06 | 2.482
298.15 K, x1 = 0.4997 | 1034.35 | 2.624
298.15 K, x1 = 0.6 | 1034.17 | 2.706
298.15 K, x1 = 0.7002 | 1033.55 | 2.726
298.15 K, x1 = 0.7999 | 1032.53 | 2.692
298.15 K, x1 = 0.8997 | 1030.98 | 2.591
298.15 K, x1 = 1 | 1028.39 | 2.39
303.15 K, x1 = 0.0999 | 1027.16 | 1.785
303.15 K, x1 = 0.2 | 1028.05 | 1.947
303.15 K, x1 = 0.3001 | 1028.95 | 2.113
303.15 K, x1 = 0.4 | 1029.38 | 2.235
303.15 K, x1 = 0.4997 | 1029.57 | 2.349
303.15 K, x1 = 0.6 | 1029.29 | 2.41
303.15 K, x1 = 0.7002 | 1028.53 | 2.416
303.15 K, x1 = 0.7999 | 1027.37 | 2.378
303.15 K, x1 = 0.8997 | 1025.67 | 2.284
303.15 K, x1 = 1 | 1022.92 | 2.097
308.15 K, x1 = 0.0999 | 1022.66 | 1.646
308.15 K, x1 = 0.2 | 1023.5 | 1.786
308.15 K, x1 = 0.3001 | 1024.34 | 1.927
308.15 K, x1 = 0.4 | 1024.69 | 2.026
308.15 K, x1 = 0.4997 | 1024.79 | 2.116
308.15 K, x1 = 0.6 | 1024.38 | 2.16
308.15 K, x1 = 0.7002 | 1023.5 | 2.156
308.15 K, x1 = 0.7999 | 1022.2 | 2.115
308.15 K, x1 = 0.8997 | 1020.34 | 2.026
308.15 K, x1 = 1 | 1017.42 | 1.858
313.15 K, x1 = 0.0999 | 1018.16 | 1.525
313.15 K, x1 = 0.2 | 1018.95 | 1.646
313.15 K, x1 = 0.3001 | 1019.72 | 1.765
313.15 K, x1 = 0.4 | 1019.99 | 1.845
313.15 K, x1 = 0.4997 | 1020 | 1.918
313.15 K, x1 = 0.6 | 1019.48 | 1.948
313.15 K, x1 = 0.7002 | 1018.46 | 1.937
313.15 K, x1 = 0.7999 | 1017.01 | 1.896
313.15 K, x1 = 0.8997 | 1015 | 1.816
313.15 K, x1 = 1 | 1011.9 | 1.658
318.15 K, x1 = 0.0999 | 1013.66 | 1.417
318.15 K, x1 = 0.2 | 1014.4 | 1.523
318.15 K, x1 = 0.3001 | 1015.1 | 1.625
318.15 K, x1 = 0.4 | 1015.29 | 1.689
318.15 K, x1 = 0.4997 | 1015.19 | 1.748
318.15 K, x1 = 0.6 | 1014.55 | 1.768
318.15 K, x1 = 0.7002 | 1013.4 | 1.751
318.15 K, x1 = 0.7999 | 1011.81 | 1.712
318.15 K, x1 = 0.8997 | 1009.64 | 1.636
318.15 K, x1 = 1 | 1006.36 | 1.491
323.15 K, x1 = 0.0999 | 1009.17 | 1.329
323.15 K, x1 = 0.2 | 1009.85 | 1.422
323.15 K, x1 = 0.3001 | 1010.48 | 1.512
323.15 K, x1 = 0.4 | 1010.58 | 1.563
323.15 K, x1 = 0.4997 | 1010.38 | 1.615
323.15 K, x1 = 0.6 | 1009.62 | 1.62
323.15 K, x1 = 0.7002 | 1008.34 | 1.602
323.15 K, x1 = 0.7999 | 1006.6 | 1.568
323.15 K, x1 = 0.8997 | 1004.28 | 1.492
323.15 K, x1 = 1 | 1000.79 | 1.349
